The source of these data is EP4603105A1, “PHARMACEUTICAL COMPOSITION CONTAINING CYCLIC COMPOUND HAVING SELECTIVE KRAS INHIBITORY EFFECT AGAINST HRAS AND NRAS” (CHUGAI SEIYAKU KABUSHIKI KAISHA, priority 2022, dated 2024).

Each structure is given as a SMILES string. pIC50, pKd: −log10 of the molar value. Where two headings read alike, the source gives them in different places.

Assay [1] deals with human lung cancer strain NCI-H441. Kind of assay: NCI-H441 cell proliferation inhibitory activity (CellTiter-Glo, 4 days). The note with it: read-out: NCl-H441 IC50. The format is cell-based. In short, it runs like this: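 Step one: dispense the test compound in serial DMSO dilutions. Step three: add the reagent and measure […].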
The target of assay [2] is GDP-bound KRAS wild-type protein (Homo sapiens, UniProt P01116). Put plainly: Binding to KRAS by surface plasmon resonance (SPR), dissociation constant KD. In short, it runs like this: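 Affinity is measured by surface plasmon resonance at 30°C against captured, GDP-loaded RAS carrying a biotinylated Avi tag. Compounds are titrated by single-cycle kinetics, and KD comes from a 1:1 fit.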

For another assay, the target named is HRAS wild-type protein (Homo sapiens, UniProt P01112). Kind of assay: Binding to HRAS by surface plasmon resonance (SPR), KD and KD ratio to KRAS. The gist of the method: (§1)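 Running buffer contained 10 µM GDP and 10 mM MgCl2 to keep RAS in the GDP state, with 4% DMSO at pH 7.4. Compounds were flowed at 100 µL/min in 75 s steps of rising concentration over captured biotin-Avi RAS at 30°C. Sensorgrams were fitted 1:1 for KD.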

For assay [3], the target named is GDP-bound NRAS wild-type protein (Homo sapiens, UniProt P01111). Put plainly: Binding to NRAS by surface plasmon resonance (SPR), KD and KD ratio to KRAS. In short, it runs like this:
as §1

Setting [4] is: ratio of KD for HRAS wild-type protein to KD for KRAS.
Setting [5] is: ratio of KD for GDP-bound NRAS wild-type protein to KD for KRAS.
Where [6] appears, read: 50% proliferation inhibitory concentration, four days.
Where [7] appears, read: Single Cycle Kinetics, 1:1 binding model.
Where [8] appears, read: ratio of KD with respect to HRAS wild-type protein to KD with respect to KRAS.
Setting [9] is: ratio of KD with respect to GDP-bound NRAS wild-type protein to KD with respect to KRAS.

GDP-bound KRAS wild-type protein, sequence (P01116 1-188 isoform P01116-2): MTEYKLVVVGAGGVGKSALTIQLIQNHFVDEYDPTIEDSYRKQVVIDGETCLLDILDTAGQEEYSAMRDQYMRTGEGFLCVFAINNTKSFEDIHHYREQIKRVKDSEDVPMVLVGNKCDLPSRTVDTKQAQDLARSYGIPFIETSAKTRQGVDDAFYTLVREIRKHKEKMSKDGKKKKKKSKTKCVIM
GDP-bound NRAS wild-type protein, sequence (P01111 whole entry): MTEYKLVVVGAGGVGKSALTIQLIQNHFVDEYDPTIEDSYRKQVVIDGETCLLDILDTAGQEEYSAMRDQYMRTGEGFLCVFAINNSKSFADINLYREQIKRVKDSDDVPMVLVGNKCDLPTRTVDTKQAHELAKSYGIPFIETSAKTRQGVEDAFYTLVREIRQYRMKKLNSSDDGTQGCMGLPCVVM
HRAS wild-type protein, sequence (P01112 whole entry): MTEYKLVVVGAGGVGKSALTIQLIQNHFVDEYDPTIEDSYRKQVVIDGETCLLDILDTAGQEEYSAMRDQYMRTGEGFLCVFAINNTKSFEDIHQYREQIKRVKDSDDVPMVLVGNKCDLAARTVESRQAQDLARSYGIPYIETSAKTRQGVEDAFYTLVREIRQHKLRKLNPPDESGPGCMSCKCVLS

Regarding `C=CCN1CC(=O)N(C)[C@H]2C/C=C\CCN(C2=O)[C@@H](Cc2ccc(C(F)F)cc2)C(=O)N(C)CC(=O)N[C@@H](CCc2ccc(C(F)(F)F)cc2Cl)C(=O)N2C[C@H](OC(C)C)C[C@H]2C(=O)N(C)C2(CCC2)C(=O)N(C)[C@@H](C(CC)CC)C(=O)N(C)[C@H](C(=O)N(C)C)CC(=O)N(C)[C@@H](CC2CC2)C(=O)N[C@@H]([C@@H](C)OCCC)C1=O` [PP3493], the pIC50 in assay [1] (NCI-H441 cells, 4 days) is 7.49. In assay [2] (Single Cycle Kinetics), this molecule had a pKd of 9.00. The “HRAS /KRAS” value at HRAS wild-type protein (setting [4]) was “A (a compound having 10 or more and less than 20 is denoted as A)”. Besides, in assay [3] (setting [5]), the “NRAS /KRAS” value was “AA (a compound having 20 or more is denoted as AA)”.
Take `CCO[C@@H]1C[C@H]2C(=O)NC3(CCC3)C(=O)N(C)[C@@H](C(CC)CC)C(=O)N(C)[C@H](C(=O)N(C)C)CC(=O)N(C)[C@@H](CC)C(=O)N[C@@H]([C@@H](C)CC)C(=O)N(C)CC(=O)N(C)[C@H]3C/C=C\CCN(C3=O)[C@@H](Cc3ccc(C(F)(F)F)cc3)C(=O)N(C)CC(=O)N[C@@H](CCc3ccc(Cl)c(Cl)c3)C(=O)N2C1` [PP1215]: the pIC50 in assay [1] (setting [6]) is 7.48. Besides, the pKd in assay [2] (setting [7]) was 9.38. Moreover, on HRAS wild-type protein (setting [8]), the “HRAS /KRAS” value is “A (a compound having 10 or more and less than 20 is denoted as A)”. For the same molecule, in assay [3] (setting [9]), the “NRAS /KRAS” value is given as “AA (a compound having 20 or more is denoted as AA)”.
As to `CCC[C@H]1C(=O)N[C@@H]([C@@H](C)CC)C(=O)N(C)CC(=O)N(C)[C@H]2C/C=C\CCN(C2=O)[C@@H](Cc2ccc(C(F)(F)F)cc2)C(=O)N(C)CC(=O)N[C@@H](CCc2ccc(C(F)(F)F)c(OC)c2)C(=O)N2C[C@H](OCC)C[C@H]2C(=O)OC2(CCC2)C(=O)N(C)[C@@H](C2CCCC2)C(=O)N(C)[C@H](C(=O)N(C)C)CC(=O)N1C` [PP3370], the negative-log IC50 (pIC50) in assay [1] (NCI-H441 cells, 4 days) was 8.17. Also, the pKd in assay [2] (Single Cycle Kinetics) is 9.85. Also, the “HRAS /KRAS” value on HRAS wild-type protein (setting [4]) was “B (a compound having 3 or more and less than 10 is denoted as B)”. In assay [3] (setting [5]), the “NRAS /KRAS” value was “A (a compound having 10 or more and less than 20 is denoted as A)”.
On to `CCCOC[C@H]1C(=O)N[C@@H]([C@@H](C)CC)C(=O)N(C)CC(=O)N(C)[C@H]2C/C=C\CCN(C2=O)[C@@H](CC2CCC(F)(F)CC2)C(=O)N(C)CC(=O)N[C@@H](CCc2cc(F)c(C(F)(F)F)c(F)c2)C(=O)N2C[C@H](OCC)C[C@H]2C(=O)NC2(CC(C)(C)C2)C(=O)N(C)[C@@H](C(CC)CC)C(=O)N(C)[C@H](C(=O)N(C)C)CC(=O)N1C` [PP2472], for which, in assay [1] (NCI-H441 cells, 4 days), the pIC50 was 7.37. This molecule also gave a pKd in assay [2] (1:1 binding model) of 9.24. Besides, the “HRAS /KRAS” value on HRAS wild-type protein (setting [4]) is “A (a compound having 10 or more and less than 20 is denoted as A)”. Moreover, in assay [3] (setting [5]), the “NRAS /KRAS” value was “A (a compound having 10 or more and less than 20 is denoted as A)”.
As for `CCC[C@H]1C(=O)N[C@@H]([C@@H](C)CC)C(=O)N(C)CC(=O)N(C)[C@H]2C/C=C\CCN(C2=O)[C@@H](Cc2ccc(C)cc2)C(=O)N(C)CC(=O)N[C@@H](CCc2ccc(C(F)(F)F)c(Cl)c2)C(=O)N2CC3(CC3)C[C@H]2C(=O)N(C)C2(CCC2)C(=O)N(C)[C@@H](C(CC)CC)C(=O)N(C)[C@H](C(=O)N(C)C)CC(=O)N1C` [PP3300], the negative logarithm of the IC50 (pIC50) in assay [1] (NCI-H441 cells, 4 days) is 7.95. Further, the pKd in assay [2] (Single Cycle Kinetics) was 9.89. Besides, the “HRAS /KRAS” value at HRAS wild-type protein (setting [4]) is “B (a compound having 3 or more and less than 10 is denoted as B)”. Further, in assay [3] (setting [5]), the “NRAS /KRAS” value is “A (a compound having 10 or more and less than 20 is denoted as A)”.
In the case of `CCC[C@H]1C(=O)N[C@@H]([C@@H](C)CC)C(=O)N(C2CC2)CC(=O)N(C)[C@H]2C/C=C\CCN(C2=O)[C@@H](Cc2ccc(C(F)F)cc2)C(=O)N(C)CC(=O)N[C@@H](CCc2cc(F)c(C(F)(F)F)c(F)c2)C(=O)N2C[C@H](OCC)C[C@H]2C(=O)NC2(CC(C)(C)C2)C(=O)N(C)[C@@H](C(CC)CC)C(=O)N(C)[C@H](C(=O)N(C)C)CC(=O)N1C` [PP2527], in assay [1] (NCI-H441 cells, 4 days), the pIC50 was 7.51. This molecule also gave a pKd in assay [2] (1:1 binding model) of 9.19. On HRAS wild-type protein (setting [4]), the “HRAS /KRAS” value is “A (a compound having 10 or more and less than 20 is denoted as A)”. Moreover, the “NRAS /KRAS” value in assay [3] (setting [5]) is reported as “AA (a compound having 20 or more is denoted as AA)”.
For `CCC[C@H]1C(=O)N[C@@H](CC(C)C)C(=O)N(C2CC2)CC(=O)N(C)[C@H]2C/C=C\CCN(C2=O)[C@@H](Cc2ccc(C)cc2)C(=O)N(C)CC(=O)N[C@@H](CCc2cc(F)c(C(F)(F)F)c(F)c2)C(=O)N2C[C@H](OCC)C[C@H]2C(=O)NC2(CCC2)C(=O)N(C)[C@@H](C2CCCC2)C(=O)N(C)[C@H](C(=O)N(C)C)CC(=O)N1C` [PP2532], the pIC50 in assay [1] (NCI-H441 cells, 4 days) is 6.84. The same molecule gave a pKd in assay [2] (1:1 binding model) of 8.39. Further, at HRAS wild-type protein (setting [4]), the “HRAS /KRAS” value was “B (a compound having 3 or more and less than 10 is denoted as B)”. For the same molecule, the “NRAS /KRAS” value in assay [3] (setting [5]) was “A (a compound having 10 or more and less than 20 is denoted as A)”.
As to `CCC[C@H]1C(=O)N[C@@H]([C@@H](C)CC)C(=O)N(C2CC2)CC(=O)N(C)[C@H]2C/C=C\CCN(C2=O)[C@@H](Cc2ccc(C)cc2)C(=O)N(C)CC(=O)N[C@@H](CCc2ccc(Cl)c(Cl)c2)C(=O)N2C[C@H](OCC)C[C@H]2C(=O)NC2(CC(C)(C)C2)C(=O)N(C)[C@@H](CC2CCC2)C(=O)N(C)[C@H](C(=O)N(C)C)CC(=O)N1C` [PP2761], the pIC50 in assay [1] (NCI-H441 cells, 4 days) is 7.16. In addition, the pKd in assay [2] (1:1 binding model) was 8.55. Moreover, the “HRAS /KRAS” value on HRAS wild-type protein (setting [4]) is “A (a compound having 10 or more and less than 20 is denoted as A)”. Further, the “NRAS /KRAS” value in assay [3] (setting [5]) was “A (a compound having 10 or more and less than 20 is denoted as A)”.
For the molecule `CCC[C@H]1C(=O)N[C@@H]([C@@H](C)CC)C(=O)N(C)CC(=O)N(C)[C@H]2C/C=C\CCN(C2=O)[C@@H](Cc2ccc(C)cc2)C(=O)N(C)CC(=O)N[C@@H](CCc2ccc(Cl)c(Cl)c2)C(=O)N2C[C@H](OC3CCC3)C[C@H]2C(=O)NC2(CC(C)(C)C2)C(=O)N(C)[C@@H](C(CC)CC)C(=O)N(C)[C@H](C(=O)N(C)C)CC(=O)N1C` [PP2644], in assay [1] (NCI-H441 cells, 4 days), the negative logarithm of the IC50 (pIC50) was 7.12. In assay [2] (1:1 binding model), this molecule showed a pKd of 9.09. The “HRAS /KRAS” value on HRAS wild-type protein (setting [4]) was “A (a compound having 10 or more and less than 20 is denoted as A)”. Also, in assay [3] (setting [5]), the “NRAS /KRAS” value was “AA (a compound having 20 or more is denoted as AA)”.
As to `CCO[C@@H]1C[C@H]2C(=O)OC3(CCC3)C(=O)N(C)[C@@H](C3CCCC3)C(=O)N(C)[C@H](C(=O)N(C)C)CC(=O)N(C)[C@@H]([C@H](C)OC)C(=O)N[C@@H]([C@@H](C)CC)C(=O)N(C3CC3)CC(=O)N(C)[C@H]3C/C=C\CCN(C3=O)[C@@H](Cc3ccc(C(F)(F)F)cc3)C(=O)N(C)CC(=O)N[C@@H](CCc3ccc(C(F)(F)F)c(OC)c3)C(=O)N2C1` [PP3378], the pIC50 in assay [1] (NCI-H441 cells, 4 days) was 7.94. The pKd in assay [2] (Single Cycle Kinetics) is 8.89. Further, on HRAS wild-type protein (setting [4]), the “HRAS /KRAS” value was “A (a compound having 10 or more and less than 20 is denoted as A)”. In addition, in assay [3] (setting [5]), the “NRAS /KRAS” value was “A (a compound having 10 or more and less than 20 is denoted as A)”.
With `CCCC[C@H]1C(=O)N[C@@H]([C@@H](C)CC)C(=O)N(C)CC(=O)N(C)[C@H]2C/C=C\CCN(C2=O)[C@@H](Cc2ccc(C(F)(F)F)cc2)C(=O)N(C)CC(=O)N[C@@H](CCc2cc(F)c(C(F)(F)F)c(F)c2)C(=O)N2C[C@H](OCC)C[C@H]2C(=O)NC2(CCCC2)C(=O)N(C)[C@@H](C2CCCC2)C(=O)N(C)[C@H](C(=O)N(C)C)CC(=O)N1C` [PP1397], in assay [1] (setting [6]), the pIC50 was 8.43. The same molecule gave a pKd in assay [2] (setting [7]) of 10.14. Besides, at HRAS wild-type protein (setting [8]), the “HRAS /KRAS” value is “A (a compound having 10 or more and less than 20 is denoted as A)”. For the same molecule, in assay [3] (setting [9]), the “NRAS /KRAS” value is “A (a compound having 10 or more and less than 20 is denoted as A)”.
